# Earlier results in patent publication US9061040B2, “Combination therapy for breast cancer” (priority 2011, dated 2015).
# Tests used:
# liver cancer = settings: 45 mg daily for two years, women with viral liver cirrhosis
# [1] = 180-300 mg/day over 10 years
# advanced prostate cancer = settings: supplemental intake greater than 400 IU/day; current smokers or quit within the past 10 years
# prostate cancer = settings: male smokers
compound,measurement,setting,value
menaquinone [vitamin K2 (menaquinone)],less likely to develop liver cancer,liver cancer,~90%
CC1=C(/C=C/C(C)=C/C=C/C(C)=C/C=C/C=C(C)/C=C/C=C(C)/C=C/C2=C(C)CCCC2(C)C)C(C)(C)CCC1 [β-carotene],toxicity,[1],did not show any toxicity
vitamin E,reduction in risk of advanced prostate cancer,advanced prostate cancer,71%
same,reduction of prostate cancer cases,prostate cancer; 50 mg daily versus no vitamin E,one-third reduction
same,new cases of prostate cancer among participants who received vitamin E,"prostate cancer; 50 mg daily, 5 to 8-year intervention, 147 cases without vitamin E, 246 in total",99 cases
